Drawing on patent US20230066474A1, “LYSOSOME-TARGETING ANTIBODY-DRUG CONJUGATE AND USE THEREOF” (Sun Yat-Sen University, priority 2019, published 2023), this text covers EC50 for 1 compound.

Where a SMILES comes first, the peptide text is derived from it. [ ]: non-standard residue; d: D form. Dolaproine = CO[C@@H]([C@@H]1CCCN1)[C@@H](C)C(=O)O; Dil = CC[C@H](C)[C@H](NC)[C@@H](CC(=O)O)OC; NMeV = CN[C@H](C(=O)O)C(C)C

This assay has as its system A431 cells. Kind of assay: 2D tumor cell model cytotoxicity, Cell Counting Kit-8 (CCK-8). It is filed as cell-based, human. The settings on record: treated 96 h, CCK-8 viability, mean±SEM (n=3). In general terms: Tetrazolium dyes change colour on reduction, which living cells bring about.

Protocol: 2D tumor cell model was used, where ADCs of varying concentrations were added to a 96-well plate seeded with A431 cells and treated for 96 h. The cell viability was examined using Cell Counting Kit-8 (CCK-8).

As to `CC[C@H](C)[C@@H]([C@@H](CC(=O)N1CCC[C@H]1[C@H](OC)[C@@H](C)C(=O)N[C@@H](Cc1ccccc1)C(=O)O)OC)N(C)C(=O)[C@@H](NC(=O)[C@@H](NC)C(C)C)C(C)C` [MMAF, monomethylaurethatin F] (H-[NMeV]V[Dil][Dolaproine]F-OH), the EC50 (commonly the concentration needed to bring the measured effect to its halfway point) was determined as 955 ± 289 nM.
